Converted amounts (≈) assume the structure as drawn.
What was measured:
MRSA T144 = test: microbe, parasite or virus in culture; format: cell-based, Staphylococcus aureus; settings: Staphylococcus aureus; MRSA T144; MHB, 16-18 h, 37 °C; read-out: MIC
How it was run: (§1)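 Broth microdilution per CLSI 2021 guidelines. Exponential-phase bacteria were diluted 1:1000 into MHB, and 1.5 × 10^6 CFUs/mL suspension was mixed with serially varied peptide concentrations to determine MIC.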

S. aureus ATCC 29213 = test: microbe, parasite or virus in culture; format: cell-based, Staphylococcus aureus; settings: Staphylococcus aureus, ATCC29213
How it was run: as §1

MRSA 1518 = test: microbe, parasite or virus in culture; format: cell-based, Staphylococcus aureus; settings: Staphylococcus aureus; MRSA 1518; MHB, 16-18 h, 37 °C; read-out: MIC
Description: (§2) An antimicrobial activity study was conducted on all peptides against a panel of laboratory bacteria, including ATCC source and clinical isolates with resistance determinants. According to CLSI2021 guidelines, we tested the minimum inhibitory concentrations (MICs) of peptides using standard broth micro-dilutions. Briefly, bacteria grown to exponential phase were diluted in 1:1000 to MHB, subsequently, equivalent amounts of bacterial suspension (1.5 × 10^6 CFUs/mL) were mixed with different concentrations of peptides in a sterilized 96-well microtiter plate (Corning).

MRSA 1530 = test: microbe, parasite or virus in culture; format: cell-based, Staphylococcus aureus; settings: Staphylococcus aureus; MRSA 1530; MHB, 16-18 h, 37 °C; read-out: MIC
Description: as §2

[1] = system: S. aureus 215 (cfr + LZD^R); test: MIC broth microdilution; format: cell-based, Staphylococcus aureus; settings: Staphylococcus aureus
Description: as §2

S. aureus G16 (RIF^R) = test: MIC broth microdilution; format: cell-based, Staphylococcus aureus; settings: Staphylococcus aureus
Description: as §2

E. faecalis 1F-1 = test: microbe, parasite or virus in culture; format: cell-based; settings: Enterococcus faecalis, 1F1; E. faecalis 1F-1; MHB, 16-18 h, 37 °C; read-out: MIC
Description: as §2

[2] = system: E. faecalis A4 (VRE, VanA); test: microbe, parasite or virus in culture; format: cell-based; settings: Enterococcus faecalis, VRE
Description: as §2

[3] = system: S. enteritidis ATCC 13076; test: microbe, parasite or virus in culture; format: cell-based; settings: Salmonella enterica
Description: as §2

E. faecium 5F-10 = test: microbe, parasite or virus in culture; format: cell-based, Enterococcus faecium; settings: Enterococcus faecium, 5F10
Description: as §2

E. coli ATCC 25922 = test: microbe, parasite or virus in culture; format: cell-based, Escherichia coli; settings: Escherichia coli, ATCC25922
How it was run: as §1

[4] = system: E. coli B2 (blaNDM-5 + mcr-1); test: microbe, parasite or virus in culture; format: cell-based, Escherichia coli; settings: Escherichia coli; E. coli B2 (blaNDM-5 + mcr-1); MHB, 16-18 h, 37 °C; read-out: MIC
How it was run: as §1

E. coli 1F28 (tet(X4)) = test: microbe, parasite or virus in culture; format: cell-based, Escherichia coli; settings: Escherichia coli; E. coli 1F28 (tet(X4)); MHB, 16-18 h, 37 °C; read-out: MIC
Description: as §2

E. coli B3-1 (tet(X4)) = test: microbe, parasite or virus in culture; format: cell-based, Escherichia coli; settings: Escherichia coli; E. coli B3-1 (tet(X4)); MHB, 16-18 h, 37 °C; read-out: MIC
Description: as §2

E. coli C3 (blaNDM-1) = test: microbe, parasite or virus in culture; format: cell-based, Escherichia coli; settings: Escherichia coli; E. coli C3 (blaNDM-1); MHB, 16-18 h, 37 °C; read-out: MIC
Description: as §2

E. coli CP131 (mcr-3) = test: microbe, parasite or virus in culture; format: cell-based, Escherichia coli; settings: Escherichia coli; E. coli CP131 (mcr-3); MHB, 16-18 h, 37 °C; read-out: MIC
Description: as §2

E. coli G6 (blaNDM-5) = test: microbe, parasite or virus in culture; format: cell-based, Escherichia coli; settings: Escherichia coli; E. coli G6 (blaNDM-5); MHB, 16-18 h, 37 °C; read-out: MIC
Description: as §2

E. coli G92 (mcr-1) = test: microbe, parasite or virus in culture; format: cell-based, Escherichia coli; settings: Escherichia coli; E. coli G92 (mcr-1); MHB, 16-18 h, 37 °C; read-out: MIC
Description: as §2

A. baumannii ATCC 19609 = test: microbe, parasite or virus in culture; format: cell-based, Acinetobacter baumannii; settings: Acinetobacter baumannii, ATCC19609; A. baumannii ATCC 19609; MHB, 16-18 h, 37 °C; read-out: MIC
Description: as §2

[5] = system: A. baumannii C222 (tet(X6)); test: microbe, parasite or virus in culture; format: cell-based, Acinetobacter baumannii; settings: Acinetobacter baumannii; A. baumannii C222 (tet(X6)); MHB, 16-18 h, 37 °C; read-out: MIC
Description: as §2

P. aeruginosa PA14 = test: microbe, parasite or virus in culture; format: cell-based, Pseudomonas aeruginosa; settings: Pseudomonas aeruginosa, PA14
Description: as §2

[6] = system: K. pneumoniae ATCC 700603; test: microbe, parasite or virus in culture; format: cell-based, Klebsiella pneumoniae; settings: Klebsiella pneumoniae, ATCC700603; K. pneumoniae ATCC 700603; MHB, 16-18 h, 37 °C; read-out: MIC
Description: as §2

[7] = system: K. pneumoniae D120 (mcr-8); test: microbe, parasite or virus in culture; format: cell-based, Klebsiella pneumoniae; settings: Klebsiella pneumoniae; K. pneumoniae D120 (mcr-8); MHB, 16-18 h, 37 °C; read-out: MIC
Description: as §2

[8] = system: P. cibarius HNCF44W (blaNDM-1 + tet(X6)); test: organism not typed; format: cell-based; settings: P. cibarius HNCF44W (blaNDM-1 + tet(X6)); MHB, 16-18 h, 37 °C; read-out: MIC
Description: as §2

E. coli DH5α (PUC19) = test: MIC broth microdilution; format: cell-based, Escherichia coli; settings: Escherichia coli; engineered E. coli DH5α (PUC19); MHB, 16-18 h, 37 °C; read-out: MIC
Description: as §2

[9] = system: E. coli DH5α (PUC19-mcr-1); test: MIC broth microdilution; format: cell-based, Escherichia coli; settings: Escherichia coli
Description: as §2

[10] = system: E. coli DH5α (PUC19-blaNDM-1); test: MIC broth microdilution; format: cell-based; settings: Escherichia coli
Description: as §2

[11] = system: E. coli DH5α (PUC19-blaNDM-5); test: MIC broth microdilution; format: cell-based; settings: Escherichia coli
Description: as §2

[12] = system: E. coli DH5α (PUC19-blaNDM-9); test: MIC broth microdilution; format: cell-based; settings: Escherichia coli
Description: as §2

[13] = system: E. coli DH5α (PUC19-tet(X4)); test: MIC broth microdilution; format: cell-based; settings: Escherichia coli
Description: as §2

[14] = system: sensitive E. coli ATCC 25922; test: Checkerboard assay with LI14; format: cell-based, Escherichia coli
[15] = system: tigecycline-resistant E. coli B3-1; test: Checkerboard assay with LI14; format: cell-based, Escherichia coli
[16] = antibiotic in combination with LI14, checkerboard
[17] = in the presence of ¼ MIC of LI14

## CN(C)c1cc(NC(=O)CNC(C)(C)C)c(O)c2c1C[C@H]1C[C@H]3[C@H](N(C)C)C(O)=C(C(N)=O)C(=O)[C@@]3(O)C(O)=C1C2=O [Tigecycline]
MRSA T144
  MIC: 0.25 µg/mL (≈ 0.427 µM)
S. aureus ATCC 29213
  MIC: 0.125 µg/mL (≈ 0.213 µM)
MRSA 1518
  MIC: 0.25 µg/mL (≈ 0.427 µM)
MRSA 1530
  MIC: 1 µg/mL (≈ 1.71 µM)
[1]
  MIC: 0.25 µg/mL (≈ 0.427 µM)
S. aureus G16 (RIF^R)
  MIC: < 0.0625 µg/mL
E. faecalis 1F-1
  MIC: 16 µg/mL (≈ 27.3 µM)
[2]
  MIC: < 0.0625 µg/mL
[3]
  MIC: 0.125 µg/mL (≈ 0.213 µM)
E. faecium 5F-10
  MIC: < 0.0625 µg/mL
E. coli ATCC 25922
  MIC: 0.125 µg/mL (≈ 0.213 µM)
[4]
  MIC: 2 µg/mL
E. coli 1F28 (tet(X4))
  MIC: 16 µg/mL (≈ 27.3 µM)
E. coli B3-1 (tet(X4))
  MIC: 32 µg/mL (≈ 54.6 µM)
E. coli C3 (blaNDM-1)
  MIC: 2 µg/mL (≈ 3.41 µM)
E. coli CP131 (mcr-3)
  MIC: 2 µg/mL (≈ 3.41 µM)
E. coli G6 (blaNDM-5)
  MIC: 2 µg/mL (≈ 3.41 µM)
E. coli G92 (mcr-1)
  MIC: 4 µg/mL (≈ 6.83 µM)
A. baumannii ATCC 19609
  MIC: 0.25 µg/mL (≈ 0.427 µM)
[5]
  MIC: 64 µg/mL (≈ 109 µM)
P. aeruginosa PA14
  MIC: < 0.0625 µg/mL
[6]
  MIC: 0.5 µg/mL (≈ 0.854 µM)
[7]
  MIC: 0.25 µg/mL (≈ 0.427 µM)
[8]
  MIC: 64 µg/mL
E. coli DH5α (PUC19)
  MIC: 1 µg/mL (≈ 1.71 µM)
[9]
  MIC: 1 µg/mL (≈ 1.71 µM)
[10]
  MIC: 1 µg/mL (≈ 1.71 µM)
[11]
  MIC: 1 µg/mL (≈ 1.71 µM)
[12]
  MIC: 1 µg/mL (≈ 1.71 µM)
[13]
  MIC: 64 µg/mL (≈ 109 µM)
[14]; [16]
  FIC index: 0.5
[14]; in the absence of LI14
  MICa of antibiotic: 0.063 µg/mL
[14]; [17]
  MICb of antibiotic: 0.016 µg/mL
  Potentiation: 4 fold
[15]; [16]
  FIC index: 0.125
[15]; in the absence of LI14
  MICa of antibiotic: 32 µg/mL
[15]; [17]
  MICb of antibiotic: 2 µg/mL
  Potentiation: 16 fold

Reference: article PMC9452538, “The antimicrobial peptide LI14 combats multidrug-resistant bacterial infections” (Communications Biology, 2022)
